Test results published in patent publication US8883480B2 (priority 2008, dated 2014).
Bridge positions count the residues as written; N and C are the ends. Peptide text beside a SMILES is read from it.

How the values were obtained:
AIV H9N2 = tested on: AIV H9N2; design: species or system avian influenza virus H9N2; conditions: in vivo
[1] = tested on: avian influenza virus H9N2; format: cell-based
Streptavidin = Streptavidin (Streptomyces avidinii, UniProt P22629); format: binding
[2] = biological target: avian influenza virus (AIV) subtype H9N2, purified whole virus particles; assay: cell-based or functional assay

Chain of Streptavidin (P22629 25-183, species assumed): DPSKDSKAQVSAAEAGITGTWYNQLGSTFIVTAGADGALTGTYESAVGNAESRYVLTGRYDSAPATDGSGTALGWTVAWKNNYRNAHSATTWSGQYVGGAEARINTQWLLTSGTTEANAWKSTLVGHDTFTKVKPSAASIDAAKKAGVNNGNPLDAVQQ

| Compound | AIV titer in the allantoic fluid (haemagglutination titer) (AIV H9N2) | Agglutination of RBC (+AIV 32 HAU; 50 μl) [1] | Agglutination of RBC (−AIV 32 HAU; 50 μl) [1] | Frequency of sequences (%) (Streptavidin) | other results |
| --- | --- | --- | --- | --- | --- |
| C[C@@H](O)[C@@H]1NC(=O)[C@H](CCCCN)NC(=O)[C@H](CO)NC(=O)[C@H](CCCNC(=N)N)NC(=O)[C@H](Cc2ccccc2)NC(=O)[C@H](CC(=O)O)NC(=O)[C@H](CC(N)=O)NC(=O)[C@@H](N)CSSC[C@@H](C(=O)O)NC1=O [CNDFRSKTC] (H-CNDFRSKTC-OH; disulfide 1-9 (inferred); N-terminus and C-terminus assumed) | reduced the AIV titer | No and Yes | No | – | IC50 (AIV H9N2; read-out: IC50, inhibition of propagation of AIV H9N2): < 100 µM |
| GLYNHPQ | – | – | – | 27% | – |
| HPQFLSL | – | – | – | 55% | – |
| NDFRSKT | reduced the AIV titer | No and Yes | No | – | – |
| synthetic linear peptide NDFRSKT | – | – | – | – | IC50 [2]: < 100 µM |
